The values below come from patent publication US20230134760A1, “CAR AND NRF2 DUAL ACTIVATOR AGENTS FOR CYCLOPHOSPHAMIDE-BASED AND DOXORUBICIN-BASED TREATMENTS OF CANCER” (priority 2020, published 2023).

For experiment [1], the system named is HO-1. The experiment can be described thus: HO-1 expression in MDA-MB-231 cells. Format: cell-based. The note with it: MDA-MB-231, 10 μM, 24 hours. Here is the method: Immortalized triple negative breast cancer cell lines MDA-MB-231 and BT549 were obtained from ATCC (Rockville, Md.). Additionally, the h9c2 cell line was purchased from ATCC (Rockville, Md.). […] Human iPSC-derived cardiomyocytes were maintained in Mtesr plus and supplemented according to protocol. These cells were treated for 2 hrs or an overnight as indicated. Following a 2 hr pretreatment, cells were co-treated with DOX at indicated concentrations for 6 or 22 hours. Following the overnight treatments, RNA or protein was isolated. HPH were seeded in collagen-coated 24 well plates and pretreated for 24 hrs. BT549 were seeded on inverted coverslips. After a 24 hr pretreatment, hepatocytes were co-administered as indicated and coverslips were inserted. The cell lines were used for less than 60 passages. After 24 h treatment, HPH, BT549, MDA-MB-231, and H9c2 cells were washed and a phenol-chloroform extraction was used to isolate total RNA with the TRIzol reagent (ThermoFisher, Rockford, Ill.). Reverse transcription was performed on extracted RNA (1 μg) to produce cDNA using the High Capacity cDNA Archive kit according to manufacturer's instructions (Applied Biosystems, Foster, Calif.). […] Quantification of expression changes was done by the 2^ΔΔCt method, normalizing to GAPDH as the housekeeping gene and determining the fold change compared to control values (n=3). […]

Experiment [2] relates to HO-1. The experiment in a line: HO-1 expression in H9c2 cardiomyocytes (RT-PCR, Western blot). Format: cell-based, rat. How it is done: Immortalized triple negative breast cancer cell lines MDA-MB-231 and BT549 were obtained from ATCC (Rockville, Md.). Additionally, the h9c2 cell line was purchased from ATCC (Rockville, Md.). […] Human iPSC-derived cardiomyocytes were maintained in Mtesr plus and supplemented according to protocol. These cells were treated for 2 hrs or an overnight as indicated. Following a 2 hr pretreatment, cells were co-treated with DOX at indicated concentrations for 6 or 22 hours. Following the overnight treatments, RNA or protein was isolated. HPH were seeded in collagen-coated 24 well plates and pretreated for 24 hrs. BT549 were seeded on inverted coverslips. After a 24 hr pretreatment, hepatocytes were co-administered as indicated and coverslips were inserted. The cell lines were used for less than 60 passages. After 24 h treatment, HPH, BT549, MDA-MB-231, and H9c2 cells were washed and a phenol-chloroform extraction was used to isolate total RNA with the TRIzol reagent (ThermoFisher, Rockford, Ill.). Reverse transcription was performed on extracted RNA (1 μg) to produce cDNA using the High Capacity cDNA Archive kit according to manufacturer's instructions (Applied Biosystems, Foster, Calif.). PCR was performed on an ABI StepOnePlus Real-Time PCR system (Applied Biosystems) using Fast SYBR Green Master Mix (Thermofisher, Rockford, Ill.) to determine gene expression changes. Primer sequences for CYP2B6, CYP3A4, HO-1, and glyceraldehyde-3-phosphate dehydrogenase (GAPDH) are: CYP2B6, [NT] ID NO: 1) and [NT] ID NO: 2); CYP3A4, [NT] ID NO: 3) and [NT] ID NO: 4); HO-1 [NT] ID NO: 5) and [NT] ID NO: 6) GAPDH, [NT] ID NO: 7) and [NT] ID NO: 8). Quantification of expression changes was done by the 2^ΔΔCt method, normalizing to GAPDH as the housekeeping gene and determining the fold change compared to control values (n=3). Protein was harvested using cell lysis buffer (Cell Signaling Technology, Danvers, Mass.) with a complete protease inhibitor cocktail (Roche, Mannheim, Germany) prior to homogenizing via sonification. […]

The subject of another experiment is Nrf2. The experiment can be described thus: Nrf2 luciferase reporter assay in HepG2 cells (ARE). The format is cell-based. The note with it: HepG2, screening, FIG. 37b. How it is done:
HepG2 cells were cultured in 24-well plates (1×10^5 cells/well) and transfected with either a hCAR1+A expression vector (30 ng/well), a CYP2B6-2.2k reporter (60 ng/well) reporter, and pRL-TK (10 ng/well) or a ARE expression vector using X-tremeGENE 9 DNA Transfection Reagent (Sigma-Aldrich). After an overnight transfection, cells were treated with a vehicle control (0.1% DMSO), RIF (10 μM), DL7076 (1 μM, 5 μM, and 10 μM) for 24 hours. Cell lysates were assayed for luciferase activity and normalized against the activity of the Renilla luciferase using a Dual-Luciferase Kit (Promega).

A further experiment relates to MDA-MB-231 cells. The experiment can be described thus: Oxidative stress imaging (DFDA) in MDA-MB-231 cells. The note with it: MDA-MB-231, DL7076 5 μM + DOX. Format: cell-based.
For another experiment, the system named is BT549 cells. The experiment in a line: Phosphorylated H2AX imaging, BT549 cells from multi-organ co-culture. Format: cell-based. The note with it: CPA/DOX + DL7076. How it is done: Additionally, HPH were cultured in collagen-coated 6-well plates and pre-treated as described in the previous co-culture system. BT549 and H9c2 cells were plated on similar modified coverslips 0.8×10^5 cells and allowed to attach for 24 hours during hepatocyte pre-treatment. […] Following pre-treatment, BT549 coverslips were inserted adjacent to H9c2 coverslips over the sandwich cultured HPH as depicted in FIG. 43a. […] Both BT549 and H9c2 cells were harvested at indicated time points and assess for viability, apoptosis, and DNA damage as detailed further. H9c2 rat cardiomyocytes seeded at 0.8×10^5 in 24-well plates. […] Cells were washed 3× with PBS. […] The oxidation of DFDA to the fluorescent dichlorofluorescein was viewed using fluorescence microscopy (Nikon Eclipse Ti) with a FITC filter at […] and quantified using Brightspot detection for fluorescent detection of triplicate images and normalized to the vehicle control (0.1% DMSO). […] Phosphorylation was calculated through fluorescence intensity all normalized to the vehicle control. […] The coverslips were visualized at 10× magnification using fluorescence microscopy (Nikon Eclipse Ti) and the amount of phosphorylation was quantified as mean intensity using brightspot detection of quadruplet images of the whole well and normalized to the vehicle control (0.1% DMSO).

In the experiment on HO-1 [1], `O=C(NCCN=C=S)c1c(-c2ccc3ccccc3c2)nc2sccn12` [DL7076, N-(2-Isothiocyanatoethyl)-6-(naphthalen-2-yl)imidazo[2,1-b]thiazole-5-carboxamide] yielded an HO-1 induction of 1.4 fold. Moreover, the “HO-1 mRNA induction” value in the experiment with HO-1 [2] (H9c2, 10 μM, 24 hours, vs vehicle control) was 3- to 3.5 fold. For the same compound, the HO-1 protein induction entry in the experiment on HO-1 [2] (H9c2, Western blot) is “robust induction in the expression of HO-1 was confirmed at a protein level”. The “HO-1 protein expression in the presence of DOX” value in the experiment with HO-1 [2] (H9c2, pretreatment, DOX 2.5 μM) is “concentration dependent protection in the expression of HO-1”. The “Nrf2 luciferase activity (potency and efficacy)” value in the experiment with Nrf2 was “higher potency and efficacy”. The ROS with cotreatment result with MDA-MB-231 cells is reported as “significant ROS without reduction”. For the same compound, in the experiment with BT549 cells, the “H2AX phosphorylation (DNA damage)” value is “effectively enhanced the CPA/DOX-mediated DNA damage”.
